Test results: ChEMBL document CHEMBL3994585, “Synthesis of α-santonin derivatives for diminutive effect on T and B-cell proliferation and their structure activity relationships” (Eur J Med Chem, 2017)

Legend:
[1] = biological target: Tumor necrosis factor (Homo sapiens) (UniProt P01375); assay: Inhibition of TNFalpha (unknown origin) at 5 uM relative to control
[2] = system: B-cell; assay: Cytotoxicity against Balb/c mouse B cells assessed as reduction in cell proliferation at 1 uM after 48 hrs by MTT assay; type: cell-based
[3] = system: T-cell; assay: Cytotoxicity against Balb/c mouse T cells assessed as reduction in cell proliferation at 10 uM after 48 hrs by MTT assay; type: cell-based
[4] = system: T-cell; assay: Immunosuppressive activity in Balb/c mouse T cells assessed as ConA-induced cell proliferation at 1 uM after 48 hrs by MTT assay relative to control; type: functional
[5] = system: T-cell; assay: Immunosuppressive activity in Balb/c mouse T cells assessed as ConA-induced cell proliferation at 100 uM after 48 hrs by MTT assay relative to control; type: functional
[6] = system: T-cell; assay: Cytotoxicity against Balb/c mouse T cells assessed as reduction in cell proliferation at 100 uM after 48 hrs by MTT assay; type: cell-based
[7] = biological target: Tumor necrosis factor (Homo sapiens) (UniProt P01375); assay: Inhibition of TNFalpha (unknown origin) at 1 uM relative to control
[8] = biological target: Tumor necrosis factor (Homo sapiens) (UniProt P01375); assay: Inhibition of TNFalpha (unknown origin) at 10 uM relative to control
[9] = system: B-cell; assay: Immunosuppressive activity in Balb/c mouse B cells assessed as LPS-induced cell proliferation at 100 uM after 48 hrs by MTT assay relative to control; type: functional
[10] = system: B-cell; assay: Immunosuppressive activity in Balb/c mouse B cells assessed as LPS-induced cell proliferation at 10 uM after 48 hrs by MTT assay relative to control; type: functional
[11] = system: B-cell; assay: Cytotoxicity against Balb/c mouse B cells assessed as reduction in cell proliferation at 100 uM after 48 hrs by MTT assay; type: cell-based
[12] = system: B-cell; assay: Cytotoxicity against Balb/c mouse B cells assessed as reduction in cell proliferation at 10 uM after 48 hrs by MTT assay; type: cell-based
[13] = system: T-cell; assay: Immunosuppressive activity in Balb/c mouse T cells assessed as ConA-induced cell proliferation at 10 uM after 48 hrs by MTT assay relative to control; type: functional
[14] = system: B-cell; assay: Immunosuppressive activity in Balb/c mouse B cells assessed as LPS-induced cell proliferation at 1 uM after 48 hrs by MTT assay relative to control; type: functional
[15] = system: T-cell; assay: Cytotoxicity against Balb/c mouse T cells assessed as reduction in cell proliferation at 1 uM after 48 hrs by MTT assay; type: cell-based
[16] = biological target: Tumor necrosis factor (Homo sapiens) (UniProt P01375); assay: Inhibition of TNFalpha (unknown origin) at 10 uM relative to dexamethasone
[17] = system: T-cell; assay: Immunostimulant activity in Balb/c mouse T cells assessed as ConA-induced cell proliferation at 100 uM after 48 hrs by MTT assay relative to control; type: ADME, cell-based
[18] = system: T-cell; assay: Immunostimulant activity in Balb/c mouse T cells assessed as ConA-induced cell proliferation at 1 uM after 48 hrs by MTT assay relative to control; type: ADME, cell-based
[19] = system: B-cell; assay: Effect on LPS-induced Balb/c mouse B cell proliferation at 100 uM after 48 hrs by MTT assay relative to control; type: functional
[20] = system: T-cell; assay: Effect on ConA-induced Balb/c mouse T cell proliferation at 10 uM after 48 hrs by MTT assay relative to control; type: functional
[21] = system: B-cell; assay: Immunostimulant activity in Balb/c mouse B cells assessed as LPS-induced cell proliferation at 100 uM after 48 hrs by MTT assay relative to control; type: ADME, cell-based
[22] = system: B-cell; assay: Immunostimulant activity in Balb/c mouse B cells assessed as LPS-induced cell proliferation at 10 uM after 48 hrs by MTT assay relative to control; type: ADME, cell-based
[23] = system: T-cell; assay: Immunostimulant activity in Balb/c mouse T cells assessed as ConA-induced cell proliferation at 10 uM after 48 hrs by MTT assay relative to control; type: ADME, cell-based
[24] = system: B-cell; assay: Immunostimulant activity in Balb/c mouse B cells assessed as LPS-induced cell proliferation at 1 uM after 48 hrs by MTT assay relative to control; type: ADME, cell-based

Sequence of Tumor necrosis factor (Homo sapiens) (P01375 whole entry): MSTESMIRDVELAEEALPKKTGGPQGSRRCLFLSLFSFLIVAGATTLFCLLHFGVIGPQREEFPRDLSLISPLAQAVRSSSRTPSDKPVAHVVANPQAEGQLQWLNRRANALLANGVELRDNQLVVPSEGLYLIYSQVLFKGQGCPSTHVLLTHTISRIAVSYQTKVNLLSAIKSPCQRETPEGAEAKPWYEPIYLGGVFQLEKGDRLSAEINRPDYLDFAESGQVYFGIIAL

| Structure (SMILES) | inhibition [1] | Activity [2] | Activity [3] | Activity [4] | Activity [5] | Activity [6] | inhibition [7] | inhibition [8] | Activity [9] | Activity [10] | Activity [11] | Activity [12] | Activity [13] | Activity [14] | Activity [15] | Activity [17] | Activity [18] | also measured |
| --- | --- | --- | --- | --- | --- | --- | --- | --- | --- | --- | --- | --- | --- | --- | --- | --- | --- | --- |
| CC(=O)OC1=C(C)C2=C3OC(=O)C(C)=C3CC[C@@]2(C)CC1 | 24.1% | Toxic | Toxic | -30.88% | -34.55% | Toxic | 3.03% | 44.9% | -45.6% | -42.3% | Toxic | Toxic | -38.23% | -42.3% | Toxic | – | – | – |
| CC(=O)Oc1cc(C)c2c(c1C)C1OC(OC(C)=O)C(C)C1CC2 (stereo not drawn) | 9.9% | Toxic | Toxic | -38.23% | -43.38% | Toxic | 0.34% | 26% | -45.05% | -28.02% | Toxic | Toxic | -26.47% | -50% | Toxic | – | – | inhibition [16]: 50% |
| Cc1c(O)c([N+](=O)[O-])c(C)c2c1[C@@H]1OC(=O)[C@@H](C)[C@@H]1CC2 | – | Toxic | Toxic | – | – | Toxic | – | – | – | -30.08% | Toxic | Toxic | -1.03% | -10.61% | Toxic | 36.08% | 13.4% | Activity [19]: 0% |
| CCOC(=O)[C@H](C)C1=Cc2c(C)c(O)cc(C)c2CC1 | – | Toxic | Toxic | – | – | Toxic | – | – | – | – | Toxic | Toxic | – | -1.76% | Toxic | 22.68% | 11.34% | Activity [20]: 0%; Activity [21]: 14.15%; Activity [22]: 23% |
| C[C@@H]1C[C@H]2[C@@H]3CCC4=CC(=O)C=C[C@]4(C)[C@@]3(F)[C@@H](O)C[C@]2(C)[C@@]1(O)C(=O)CO | – | – | – | – | – | – | 49.9% | – | – | – | – | – | – | – | – | – | – | – |
| CC1=C2[C@H]3OC(=O)[C@@H](C)[C@@H]3CC[C@@]2(C)C=CC1=O [SANTONIN] | 6.2% | Non-Toxic | Non-Toxic | -36.02% | -5.16% | Non-Toxic | Below limit of detection | 19% | -33.62% | -24.17% | Non-Toxic | Non-Toxic | – | – | Non-Toxic | – | – | Activity [23]: 4.48%; Activity [24]: 20.35% |
| COC(=O)[C@H](C)C1=Cc2c(C)c(OC)cc(C)c2CC1 | – | Toxic | Toxic | – | – | Toxic | – | – | – | – | Toxic | Toxic | – | -1.76% | Toxic | 22.68% | 11.34% | Activity [20]: 0%; Activity [21]: 14.15%; Activity [22]: 23% |
| Cc1cc(O)c(C)c2c1CC[C@@H]([C@@H](C)C(=O)Nc1ccc(CC#N)cc1)C2 | 4.5% | Toxic | Toxic | -36.02% | -7.35% | Toxic | Below limit of detection | 17.1% | -46.7% | -39.56% | Toxic | Toxic | -30.14% | -42.3% | Toxic | – | – | – |
